Assay results reported in ChEMBL document CHEMBL4842360, “Discovery of a Bicyclic Peptidyl Pan-Ras Inhibitor” (J Med Chem, 2021).

What follows are molecules tested against GTPase KRas (Homo sapiens, UniProt P01116, G12V) (assay: Inhibition of His6-tagged KRas G12V mutant (unknown origin) expressed in Escherichia coli BL21(DE3) cells assessed as reduction in Ras/GST-fused Raf RBD interaction incubated for 1 hr by HTRF assay). Settings: not given; call rule not given here.
Chain of GTPase KRas (P01116 whole entry G12V, the tested form may be a part): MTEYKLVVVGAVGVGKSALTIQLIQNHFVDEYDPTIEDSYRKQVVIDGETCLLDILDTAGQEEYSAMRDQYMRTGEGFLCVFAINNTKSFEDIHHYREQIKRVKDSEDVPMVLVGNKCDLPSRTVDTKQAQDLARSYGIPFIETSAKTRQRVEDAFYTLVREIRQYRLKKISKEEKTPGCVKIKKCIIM

In the case of `C[C@@H]1NC(=O)[C@@H](Cc2ccccc2)NC(=O)[C@@H]2CCCCNC(=O)c3cc(cc(c3)C(=O)N[C@H](Cc3ccc4ccccc4c3)C(=O)N[C@@H](CO)C(=O)N[C@@H](CCC(N)=O)C(=O)N[C@H](Cc3ccc4ccccc4c3)C(=O)N[C@@H](c3ccccc3)C(=O)N2)C(=O)NC[C@@H](C(=O)N2CCC[C@@H]2C(=O)N[C@H](CCCNC(=N)N)C(=O)N[C@H](Cc2ccccc2)C(=O)N[C@H](Cc2ccc(O)cc2)C(N)=O)NC(=O)[C@H](CCCNC(=N)N)NC(=O)[C@@H](CCCNC(=N)N)NC1=O`, the IC50 is reported as “Not Active”.

The molecules below were run on NCI-H358 (assay: Antiproliferative activity against human NCI-H358 cells incubated for 96 hrs by Celltiter-Glo assay). Settings: Homo sapiens, NCI-H358, 96 h; read-out: EC50.
Format: functional, cell-based

Compared with `C[C@@H]1NC(=O)[C@H](CO)NC(=O)[C@@H](Cc2ccc3ccccc3c2)NC(=O)c2cc3cc(c2)C(=O)NC[C@@H](C(=O)N[C@@H](CCCN)C(=O)N[C@H](CCCNC(=N)N)C(=O)N[C@@H](Cc2ccccc2)C(=O)N[C@H](C)C(N)=O)NC(=O)[C@H](CCCNC(=N)N)NC(=O)[C@@H](CCCNC(=N)N)NC(=O)[C@@H](CCC(N)=O)NC(=O)[C@@H](Cc2ccccc2)NC(=O)[C@H](CCCCNC3=O)NC(=O)[C@H](c2ccccc2)NC(=O)[C@@H](Cc2ccc3ccccc3c2)NC1=O`, `C[C@@H]1NC(=O)[C@@H](Cc2ccccc2)NC(=O)[C@@H]2CCCCNC(=O)c3cc(cc(c3)C(=O)N[C@H](Cc3ccc4ccccc4c3)C(=O)N[C@@H](CO)C(=O)N[C@@H](CC(N)=O)C(=O)N[C@H](Cc3ccc4ccccc4c3)C(=O)N[C@@H](c3ccccc3)C(=O)N2)C(=O)NC[C@@H](C(=O)N[C@@H](CCCN)C(=O)N[C@H](CCCNC(=N)N)C(=O)N[C@@H](CCc2ccccc2)C(=O)N[C@H](C)C(N)=O)NC(=O)[C@H](CCCNC(=N)N)NC(=O)[C@@H](CCCNC(=N)N)NC1=O` is 1.9-fold higher in EC50: 4.9 µM for the first, 9.2 µM for the second.

Going from `C[C@@H]1NC(=O)[C@@H](Cc2ccccc2)NC(=O)[C@@H]2CCCCNC(=O)c3cc(cc(c3)C(=O)N[C@H](Cc3ccc4ccccc4c3)C(=O)N[C@@H](CO)C(=O)N[C@@H](CC(N)=O)C(=O)N[C@H](Cc3ccc4ccccc4c3)C(=O)N[C@@H](c3ccccc3)C(=O)N2)C(=O)NC[C@@H](C(=O)N[C@@H](CCCN)C(=O)N[C@H](CCCNC(=N)N)C(=O)N[C@H](C(=O)N[C@H](C)C(N)=O)c2ccccc2)NC(=O)[C@H](CCCNC(=N)N)NC(=O)[C@@H](CCCNC(=N)N)NC1=O` to `CC[C@H]1NC(=O)[C@@H](Cc2ccccc2)NC(=O)[C@@H]2CCCCNC(=O)c3cc(cc(c3)C(=O)N[C@H](Cc3ccc4ccccc4c3)C(=O)N[C@@H](CO)C(=O)N[C@@H](CC(N)=O)C(=O)N[C@H](Cc3ccc4ccccc4c3)C(=O)N[C@@H](c3ccccc3)C(=O)N2)C(=O)NC[C@@H](C(=O)N[C@@H](CCCN)C(=O)N[C@H](CCCNC(=N)N)C(=O)N[C@@H](Cc2ccccc2)C(=O)N[C@H](C)C(N)=O)NC(=O)[C@H](CCCNC(=N)N)NC(=O)[C@@H](CCCNC(=N)N)NC1=O`, the EC50 rises from 4.5 µM to 7.2 µM (1.6-fold).

First: C[C@@H](O)[C@H](NC(=O)[C@H](Cc1ccccc1)NC(=O)[C@@H](CCCNC(=N)N)NC(=O)[C@H](CCCN)NC(=O)[C@@H]1CNC(=O)c2cc3cc(c2)C(=O)N[C@H](Cc2ccc4ccccc4c2)C(=O)N[C@@H](CO)C(=O)N[C@@H](CC(N)=O)C(=O)N[C@H](Cc2ccc4ccccc4c2)C(=O)N[C@@H](c2ccccc2)C(=O)N[C@@H](CCCCNC3=O)C(=O)N[C@H](Cc2ccccc2)C(=O)N[C@H](CCC(N)=O)C(=O)N[C@H](CCCNC(=N)N)C(=O)N[C@@H](CCCNC(=N)N)C(=O)N1)C(N)=O
Second: CC(C)[C@H](NC(=O)[C@H](Cc1ccccc1)NC(=O)[C@@H](CCCNC(=N)N)NC(=O)[C@H](CCCN)NC(=O)[C@@H]1CNC(=O)c2cc3cc(c2)C(=O)N[C@H](Cc2ccc4ccccc4c2)C(=O)N[C@@H](CO)C(=O)N[C@@H](CC(N)=O)C(=O)N[C@H](Cc2ccc4ccccc4c2)C(=O)N[C@@H](c2ccccc2)C(=O)N[C@@H](CCCCNC3=O)C(=O)N[C@H](Cc2ccccc2)C(=O)N[C@H](CCC(N)=O)C(=O)N[C@H](CCCNC(=N)N)C(=O)N[C@@H](CCCNC(=N)N)C(=O)N1)C(N)=O
The EC50 of the first is 2.7-fold lower: 2.6 µM for the first, 7.1 µM for the second. The first is the more potent here.

Going from `C[C@@H]1NC(=O)[C@@H](Cc2ccccc2)NC(=O)[C@@H]2CCCCNC(=O)c3cc(cc(c3)C(=O)N[C@H](Cc3ccc4ccccc4c3)C(=O)N[C@@H](CO)C(=O)N[C@@H](CC(N)=O)C(=O)N[C@H](Cc3ccc4ccccc4c3)C(=O)N[C@@H](c3ccccc3)C(=O)N2)C(=O)NC[C@@H](C(=O)N[C@@H](CCN)CC(=O)N[C@H](CCCNC(=N)N)C(N)=O)NC(=O)[C@H](CCCNC(=N)N)NC(=O)[C@@H](CCCNC(=N)N)NC1=O` to `C[C@@H]1NC(=O)[C@@H](Cc2ccccc2)NC(=O)[C@@H]2CCCCNC(=O)c3cc(cc(c3)C(=O)N[C@H](Cc3ccc4ccccc4c3)C(=O)N[C@@H](CO)C(=O)N[C@@H](CC(N)=O)C(=O)N[C@H](Cc3ccc4ccccc4c3)C(=O)N[C@@H](c3ccccc3)C(=O)N2)C(=O)NC[C@@H](C(=O)N[C@@H](CC(N)=O)C(=O)N[C@H](CCCNC(=N)N)C(=O)N[C@@H](Cc2cccc(Cl)c2)C(=O)N[C@H](C)C(N)=O)NC(=O)[C@H](CCCNC(=N)N)NC(=O)[C@@H](CCCNC(=N)N)NC1=O`, the EC50 falls from 16 µM to 9 µM (1.8-fold).

`C[C@H](NC(=O)C[C@H](Cc1ccccc1)NC(=O)[C@@H](CCCNC(=N)N)NC(=O)[C@H](CCCN)NC(=O)[C@@H]1CNC(=O)c2cc3cc(c2)C(=O)N[C@H](Cc2ccc4ccccc4c2)C(=O)N[C@@H](CO)C(=O)N[C@@H](CC(N)=O)C(=O)N[C@H](Cc2ccc4ccccc4c2)C(=O)N[C@@H](c2ccccc2)C(=O)N[C@@H](CCCCNC3=O)C(=O)N[C@H](Cc2ccccc2)C(=O)N[C@H](CCC(N)=O)C(=O)N[C@H](CCCNC(=N)N)C(=O)N[C@@H](CCCNC(=N)N)C(=O)N1)C(N)=O` and `N=C(N)NCCC[C@@H]1NC(=O)[C@@H](CCCNC(=N)N)NC(=O)[C@@H](CCC(N)=O)NC(=O)[C@@H](Cc2ccccc2)NC(=O)[C@@H]2CCCCNC(=O)c3cc(cc(c3)C(=O)N[C@H](Cc3ccc4ccccc4c3)C(=O)N[C@@H](CO)C(=O)N[C@@H](CC(N)=O)C(=O)N[C@H](Cc3ccc4ccccc4c3)C(=O)N[C@@H](c3ccccc3)C(=O)N2)C(=O)NC[C@@H](C(=O)N[C@@H](CCCN)C(=O)N[C@H](CCCNC(=N)N)C(=O)N[C@@H](Cc2ccccc2)C(=O)N[C@H](CO)C(N)=O)NC1=O` are within 1.5-fold of each other in EC50: 7.4 µM for the first, 5.3 µM for the second.

`C[C@@H](NC(=O)[C@H](Cc1ccccc1)NC(=O)[C@@H](CCCNC(=N)N)NC(=O)[C@H](CCCN)NC(=O)[C@@H]1CNC(=O)c2cc3cc(c2)C(=O)N[C@H](Cc2ccc4ccccc4c2)C(=O)N[C@@H](CO)C(=O)N[C@@H](CC(N)=O)C(=O)N[C@H](Cc2ccc4ccccc4c2)C(=O)N[C@@H](c2ccccc2)C(=O)N[C@@H](CCCCNC3=O)C(=O)N[C@H](Cc2ccccc2)C(=O)N[C@H](CCCN)C(=O)N[C@H](CCCNC(=N)N)C(=O)N[C@@H](CCCNC(=N)N)C(=O)N1)C(N)=O` and `CC(C)C[C@H]1NC(=O)[C@@H](Cc2ccccc2)NC(=O)[C@@H]2CCCCNC(=O)c3cc(cc(c3)C(=O)N[C@H](Cc3ccc4ccccc4c3)C(=O)N[C@@H](CO)C(=O)N[C@@H](CC(N)=O)C(=O)N[C@H](Cc3ccc4ccccc4c3)C(=O)N[C@@H](c3ccccc3)C(=O)N2)C(=O)NC[C@@H](C(=O)N[C@@H](CCCN)C(=O)N[C@H](CCCNC(=N)N)C(=O)N[C@@H](Cc2ccccc2)C(=O)N[C@H](C)C(N)=O)NC(=O)[C@H](CCCNC(=N)N)NC(=O)[C@@H](CCCNC(=N)N)NC1=O` are within 1.5-fold of each other in EC50: 6.4 µM for the first, 4.8 µM for the second.

First: C[C@@H](NC(=O)[C@H](Cc1ccccc1)NC(=O)[C@@H](CCCNC(=N)N)NC(=O)[C@H](CCCN)NC(=O)[C@@H]1CNC(=O)c2cc3cc(c2)C(=O)N[C@H](Cc2ccc4ccccc4c2)C(=O)N[C@@H](CO)C(=O)N[C@@H](CC(N)=O)C(=O)N[C@H](Cc2csc4ccccc24)C(=O)N[C@@H](c2ccccc2)C(=O)N[C@@H](CCCCNC3=O)C(=O)N[C@H](Cc2ccccc2)C(=O)N[C@H](CCC(N)=O)C(=O)N[C@H](CCCNC(=N)N)C(=O)N[C@@H](CCCNC(=N)N)C(=O)N1)C(N)=O
Second: C[C@@H](NC(=O)[C@H](Cc1ccccc1)NC(=O)[C@@H](CCCNC(=N)N)NC(=O)[C@H](CCCN)NC(=O)[C@@H]1CNC(=O)c2cc3cc(c2)C(=O)N[C@H](Cc2csc4ccccc24)C(=O)N[C@@H](CO)C(=O)N[C@@H](CC(N)=O)C(=O)N[C@H](Cc2ccc4ccccc4c2)C(=O)N[C@@H](c2ccccc2)C(=O)N[C@@H](CCCCNC3=O)C(=O)N[C@H](Cc2ccccc2)C(=O)N[C@H](CCC(N)=O)C(=O)N[C@H](CCCNC(=N)N)C(=O)N[C@@H](CCCNC(=N)N)C(=O)N1)C(N)=O
The EC50 of the first is 3.3-fold lower: 5.2 µM for the first, 17 µM for the second. The first is the more potent here.

Same assay, conditions: nci-h358

With `C[C@@H]1NC(=O)[C@@H](Cc2ccccc2)NC(=O)[C@@H]2CCCCNC(=O)c3cc(cc(c3)C(=O)N[C@H](Cc3ccc4ccccc4c3)C(=O)N[C@@H](CO)C(=O)N[C@@H](CC(N)=O)C(=O)N[C@H](Cc3ccc4ccccc4c3)C(=O)N[C@@H](c3ccccc3)C(=O)N2)C(=O)NC[C@@H](C(=O)N[C@@H](CN)C(=O)N[C@H](CCCNC(=N)N)C(=O)N[C@@H](Cc2ccc(F)cc2)C(=O)N[C@H](C)C(N)=O)NC(=O)[C@H](CCCNC(=N)N)NC(=O)[C@@H](CCCNC(=N)N)NC1=O` the EC50 was “Not Active”.
With `C[C@@H](NC(=O)[C@H](Cc1ccccc1)NC(=O)[C@@H](CCCNC(=N)N)NC(=O)[C@H](CCCN)NC(=O)[C@@H]1CNC(=O)c2cc3cc(c2)C(=O)N[C@H](Cc2ccc4ccccc4c2)C(=O)N[C@@H](CCO)C(=O)N[C@@H](CC(N)=O)C(=O)N[C@H](Cc2ccc4ccccc4c2)C(=O)N[C@@H](c2ccccc2)C(=O)N[C@@H](CCCCNC3=O)C(=O)N[C@H](Cc2ccccc2)C(=O)N[C@H](CCC(N)=O)C(=O)N[C@H](CCCNC(=N)N)C(=O)N[C@@H](CCCNC(=N)N)C(=O)N1)C(N)=O` the EC50 was “Not Active”.
For `C[C@@H]1NC(=O)[C@@H](Cc2ccccc2)NC(=O)[C@@H]2CCCCNC(=O)c3cc(cc(c3)C(=O)N[C@H](Cc3ccc4ccccc4c3)C(=O)N[C@@H](CO)C(=O)N[C@@H](CC(N)=O)C(=O)N[C@H](Cc3ccc4ccccc4c3)C(=O)N[C@@H](c3ccccc3)C(=O)N2)C(=O)NC[C@@H](C(=O)N[C@@H](CCCN)C(=O)N[C@H](CCCNC(=N)N)C(=O)N[C@@H](Cc2c[nH]c3ccccc23)C(=O)N[C@H](C)C(N)=O)NC(=O)[C@H](CCCNC(=N)N)NC(=O)[C@@H](CCCNC(=N)N)NC1=O`, the EC50 was “Not Active”.
